Data set [1] can be described thus: Stability in aqueous media (FaSSIF, SGF, PBS). The conditions noted are these: for FaSSIF (pH 6.5) % remaining 1 h / FaSSIF (pH 6.5) % remaining 6 h / FaSSIF (pH 6.5) % remaining 24 h: FaSSIF pH 6.5, 37° C.; for PBS (pH 7.4) % remaining 1 h / PBS (pH 7.4) % remaining 6 h / PBS (pH 7.4) % remaining 24 h: PBS pH 7.4, 37° C.; for SGF (pH 1.2) % remaining 1 h / SGF (pH 1.2) % remaining 6 h / SGF (pH 1.2) % remaining 24 h: SGF pH 1.2, 37° C. The format is physicochemical. As for the experimental part:
10 μL of a 10 mM stock solution of the Examples were dissolved in 490 μL DMSO to afford […] working solution SGF (pH 1.2):
Dissolve 0.04 g NaCl and 0.064 g pepsin in 0.14 mL HCl and add sufficient water to 20 mL volume. The pH of the test solution was 1.20±0.05.
0.056% (w/v) lecithin, 0.161% (w/v) sodium taurocholate, 0.39% (w/v) monobasic potassium phosphate, 0.77% (w/v) potassium chloride, deionized H2O. The pH of the test solution was 6.5±0.05.
30 mL of 10×PBS (pH7.4) was added into a 50 mL flask and diluted with water. The solution was mixed well and adjusted to pH 7.4 with 1 N HCl.
2 μL of the 200 μL working solution of the Examples was added into 96-deep-well plates for TO, T60, T120, T360 and T1440 timepoints. Duplicates were prepared.
Stability studies were commenced by the addition of 198 μL of the required media (e.g. Simulated Gastric Fluid pH 1.2 [SGF], Simulated Fasted State Intestinal Fluid pH 6.5 [FaSSIF]) and Phosphate Buffered Saline pH 7.4 [PBS]) to each well except TO. The samples were incubated at 37° C. at 600 rpm for the appointed time. The samples at the corresponding timepoint were removed and immediately mixed with 400 μL of cold acetonitrile containing 200 ng/mL tolbutamide and labetalol (internal standard). The samples were centrifuged at 4000 rpm at 4° C. for 20 minutes. 60 μL of the supernatant was removed and mixed with 180 μL purified water and thoroughly mixed and analysed by LCMS (Shimadzu LC 30-AD, ACQUITY UPLC BEH Phenyl 1.7 um 2.1*50 mm Part No. 186002884, with mobile phase A: 0.1% formic acid in water, mobile phase B: 0.1% formic acid in acetonitrile). Formation of parent was also monitored as a metabolite.
Samples were analysed by Mass Spectrometry QTRAP 6500+.

Data set [2] is described as follows: Solubility in simulated fluids (kinetic solubility, 24 hours). The format is physicochemical. The conditions noted are these: thermodynamic from solid, 24 hour timepoint, room temperature. As for the experimental part: A known quantity of the Examples and control compounds were weighed into a suitable vessel (whatman miniuniprep vials) and a known volume of the required media was added (e.g. Simulated Gastric Fluid pH 1.2 [SGF], Simulated Fasted State Intestinal Fluid pH 6.5 [FaSSIF] or Phosphate Buffered Saline pH 7.4 [PBS]). The samples were subjected to vortex mixing for 2 minutes followed by agitation on a shaker for 24 hours at room temperature at 800 rpm.

The format of data set [3] is in vitro ADME. The following applies: rat plasma, 37° C. The protocol: 5 μL of a 10 mM stock solution of the Examples were dissolved in 495 μL DMSO to afford 500 μL working solution Assay procedure:
98 μL plasma was added to each well of a 96-well reaction plate, using one plate per timepoint (Blank, TO, T10, T30, T60, and T120). 2 μL of working solution was added to each well of the reaction plates except Blank. Each plate was incubated at 37° C. for the indicated timepoint (0, 10, 30, 60, 120 minutes). At the end of incubation, 400 μL of stop solution (200 ng/mL tolbutamide and 200 ng/mL labetalol in 0.1% FA in ACN) was added to precipitate protein. The plates were then sealed and shaken for 20 minutes before centrifugation at 4000 rpm for 20 minutes. […] Formation of parent was also monitored as a metabolite.

In brackets after ≈: the same amount, converted by molar mass.

As for `O=C(OCOC(=O)c1ccc2c(c1)nc(OCCOCCCCNCc1cc(F)c(OC(F)(F)F)c(F)c1)c1ccncc12)OC1CCOCC1` [Example 16, ((((tetrahydro-2H-pyran-4-yl)oxy)carbonyl)oxy)methyl 5-(2-(4-((3,5-difluoro-4-(trifluoromethoxy)benzyl)amino)butoxy)ethoxy)benzo[c][2,6]naphthyridine-8-carboxylate], in data set [1], the “FaSSIF (pH 6.5) % remaining 1 h” value is recorded as 95.5%, the “FaSSIF (pH 6.5) % remaining 6 h” value amounted to 104.4%, the “FaSSIF (pH 6.5) % remaining 24 h” value stood at 95.7% and the “PBS (pH 7.4) % remaining 1 h” value stood at 93.8%. Further, in data set [1], the “PBS (pH 7.4) % remaining 6 h” value was found to be 37.9%, the “PBS (pH 7.4) % remaining 24 h” value is 7.1%, the “SGF (pH 1.2) % remaining 1 h” value came out at 95.4% and the “SGF (pH 1.2) % remaining 6 h” value is 63.0%. Besides, in data set [1], the “SGF (pH 1.2) % remaining 24 h” value worked out at 19.4%. This compound also gave a solubility (kinetic) at 24 h in data set [2] (simulated gastric fluid, SGF (pH 1.2)) of 39.4 µg/mL (≈ 54.4 µM). The solubility (kinetic) at 24 h in data set [2] (FaSSIF (pH 6.5)) is 99.4 µg/mL (≈ 137 µM). Further, in data set [3], the “% Example remaining 0 min” value was 100.0%, the “Example concentration (nM) 0 min” value was 1845.9 nM, the “% Example remaining 10 min” value was 0.1% and the “Example concentration (nM) 10 min” value turned out to be 2.7 nM.

Turning to `COC(=O)OCOC(=O)c1ccc2c(c1)nc(OCCOCCCCNCc1cc(F)c(OC(F)(F)F)c(F)c1)c1ccncc12` [Example 11, ((methoxycarbonyl)oxy)methyl 5-(2-(4-((3,5-difluoro-4-(trifluoromethoxy)benzyl)amino)butoxy)ethoxy)benzo[c][2,6]naphthyridine-8-carboxylate], in data set [1], the “FaSSIF (pH 6.5) % remaining 1 h” value is given as 96.4%, the “FaSSIF (pH 6.5) % remaining 6 h” value turned out to be 97.5%, the “FaSSIF (pH 6.5) % remaining 24 h” value is recorded as 105.9% and the “PBS (pH 7.4) % remaining 1 h” value stood at 81.2%. Besides, in data set [1], the “PBS (pH 7.4) % remaining 6 h” value amounted to 29.3%, the “PBS (pH 7.4) % remaining 24 h” value amounted to 19.0%, the “SGF (pH 1.2) % remaining 1 h” value is 100.2% and the “SGF (pH 1.2) % remaining 6 h” value was 66.3%. The “SGF (pH 1.2) % remaining 24 h” value in data set [1] is 21.5%.

With `CN(C)CCOC(=O)c1ccc2c(c1)nc(OCCOCCCCNCc1cc(F)c(OC(F)(F)F)c(F)c1)c1ccncc12` [Example 3, 2-(dimethylamino)ethyl 5-(2-(4-((3,5-difluoro-4-(trifluoromethoxy)benzyl)amino)butoxy)ethoxy)benzo[c][2,6]naphthyridine-8-carboxylate], in data set [1], the “FaSSIF (pH 6.5) % remaining 1 h” value came out at 102.2%, the “FaSSIF (pH 6.5) % remaining 6 h” value amounted to 101.8%, the “FaSSIF (pH 6.5) % remaining 24 h” value is listed as 98.6% and the “PBS (pH 7.4) % remaining 1 h” value was 71.8%. Besides, in data set [1], the “PBS (pH 7.4) % remaining 6 h” value is on record as 17.8%, the “PBS (pH 7.4) % remaining 24 h” value is 1.3%, the “SGF (pH 1.2) % remaining 1 h” value stood at 90.6% and the “SGF (pH 1.2) % remaining 6 h” value is 76.1%. In addition, the “SGF (pH 1.2) % remaining 24 h” value in data set [1] amounted to 33.5%. For the same compound, in data set [3], the “% Example remaining 0 min” value came out at 100.0%, the “Example concentration (nM) 0 min” value amounted to 1830.9 nM, the “% Example remaining 10 min” value worked out at 0.1% and the “Example concentration (nM) 10 min” value is on record as 2.7 nM.

`CC(C)C(=O)OCOC(=O)c1ccc2c(c1)nc(OCCOCCCCNCc1cc(F)c(OC(F)(F)F)c(F)c1)c1ccncc12` [Example 5, (isobutyryloxy)methyl 5-(2-(4-((3,5-difluoro-4-(trifluoromethoxy)benzyl)amino)butoxy)ethoxy)benzo[c][2,6]naphthyridine-8-carboxylate]: in data set [1], the “FaSSIF (pH 6.5) % remaining 1 h” value is recorded as 100.2%, the “FaSSIF (pH 6.5) % remaining 6 h” value is 97.5%, the “FaSSIF (pH 6.5) % remaining 24 h” value was found to be 98.8% and the “PBS (pH 7.4) % remaining 1 h” value came out at 76.2%. Moreover, in data set [1], the “PBS (pH 7.4) % remaining 6 h” value is recorded as 7.9%, the “PBS (pH 7.4) % remaining 24 h” value is given as 2.4%, the “SGF (pH 1.2) % remaining 1 h” value worked out at 87.0% and the “SGF (pH 1.2) % remaining 6 h” value worked out at 55.5%. Further, the “SGF (pH 1.2) % remaining 24 h” value in data set [1] was 13.0%.

In the case of `CC(C)(C)OC(=O)OCOC(=O)c1ccc2c(c1)nc(OCCOCCCCNCc1cc(F)c(OC(F)(F)F)c(F)c1)c1ccncc12` [Example 15, ((tert-butoxycarbonyl)oxy)methyl 5-(2-(4-((3,5-difluoro-4-(trifluoromethoxy)benzyl)amino)butoxy)ethoxy)benzo[c][2,6]naphthyridine-8-carboxylate], in data set [1], the “FaSSIF (pH 6.5) % remaining 1 h” value is on record as 99.0%, the “FaSSIF (pH 6.5) % remaining 6 h” value is 97.9%, the “FaSSIF (pH 6.5) % remaining 24 h” value is given as 98.6% and the “PBS (pH 7.4) % remaining 1 h” value was determined as 100.3%. Further, in data set [1], the “PBS (pH 7.4) % remaining 6 h” value is listed as 49.7%, the “PBS (pH 7.4) % remaining 24 h” value is recorded as 7.9%, the “SGF (pH 1.2) % remaining 1 h” value was found to be 47.5% and the “SGF (pH 1.2) % remaining 6 h” value amounted to 3.8%. In data set [1], the “SGF (pH 1.2) % remaining 24 h” value is on record as 1.8%.

As for `CC(C)(C)C(=O)OCOC(=O)c1ccc2c(c1)nc(OCCOCCCCNCc1cc(F)c(OC(F)(F)F)c(F)c1)c1ccncc12` [Example 6, (pivaloyloxy)methyl 5-(2-(4-((3,5-difluoro-4-(trifluoromethoxy)benzyl)amino)butoxy)ethoxy)benzo[c][2,6]naphthyridine-8-carboxylate], in data set [1], the “FaSSIF (pH 6.5) % remaining 1 h” value is 112.8%, the “FaSSIF (pH 6.5) % remaining 6 h” value was 97.0%, the “FaSSIF (pH 6.5) % remaining 24 h” value stood at 109.4% and the “PBS (pH 7.4) % remaining 1 h” value came to 85.2%. For the same compound, in data set [1], the “PBS (pH 7.4) % remaining 6 h” value came to 27.7%, the “PBS (pH 7.4) % remaining 24 h” value is given as 5.1%, the “SGF (pH 1.2) % remaining 1 h” value is given as 88.8% and the “SGF (pH 1.2) % remaining 6 h” value turned out to be 59.8%. Also, the “SGF (pH 1.2) % remaining 24 h” value in data set [1] is 20.0%. Also, in data set [3], the “% Example remaining 0 min” value came out at 100.0%, the “Example concentration (nM) 0 min” value was found to be 1779.1 nM, the “% Example remaining 10 min” value is given as 0.3% and the “Example concentration (nM) 10 min” value was determined as 5.0 nM.

Take `CC(C)OC(=O)c1ccc2c(c1)nc(OCCOCCCCNCc1cc(F)c(OC(F)(F)F)c(F)c1)c1ccncc12` [Example 2, isopropyl 5-(2-(4-((3,5-difluoro-4-(trifluoromethoxy)benzyl)amino)butoxy)ethoxy)benzo[c][2,6]naphthyridine-8-carboxylate]: in data set [1], the “FaSSIF (pH 6.5) % remaining 1 h” value worked out at 95.4%, the “FaSSIF (pH 6.5) % remaining 6 h” value came to 80.5%, the “FaSSIF (pH 6.5) % remaining 24 h” value is on record as 87.2% and the “PBS (pH 7.4) % remaining 1 h” value was 74.5%. For the same compound, in data set [1], the “PBS (pH 7.4) % remaining 6 h” value is on record as 31.0%, the “PBS (pH 7.4) % remaining 24 h” value came out at 11.5%, the “SGF (pH 1.2) % remaining 1 h” value stood at 97.1% and the “SGF (pH 1.2) % remaining 6 h” value came to 57.9%. In addition, in data set [1], the “SGF (pH 1.2) % remaining 24 h” value is 19.6%.

Turning to `COC(=O)c1ccc2c(c1)nc(OCCOCCCCNCc1cc(F)c(OC(F)(F)F)c(F)c1)c1ccncc12` [Example 4, methyl 5-(2-(4-((3,5-difluoro-4-(trifluoromethoxy)benzyl)amino)butoxy)ethoxy)benzo[c][2,6]naphthyridine-8-carboxylate], in data set [1], the “FaSSIF (pH 6.5) % remaining 1 h” value is 90.0%, the “FaSSIF (pH 6.5) % remaining 6 h” value is given as 86.6%, the “FaSSIF (pH 6.5) % remaining 24 h” value is 93.3% and the “PBS (pH 7.4) % remaining 1 h” value was 70.3%. Also, in data set [1], the “PBS (pH 7.4) % remaining 6 h” value is 22.4%, the “PBS (pH 7.4) % remaining 24 h” value was 7.9%, the “SGF (pH 1.2) % remaining 1 h” value stood at 93.7% and the “SGF (pH 1.2) % remaining 6 h” value was 63.7%. Further, the “SGF (pH 1.2) % remaining 24 h” value in data set [1] came out at 16.5%.

Source of the values: patent US20260085069A1, “PRODRUGS” (Cambridge Enterprise Limited, priority 2022, published 2026).
